Reference: patent US8557820B2, “Crystal modifications of transmission dyes” (BASF SE, priority 2007, dated 2013)

Experiment: Thermodynamic / phase stability of the crystal modification at 25° C.
Type: physicochemical
Description: This modification is therefore suitable in dispersions comprising micro-fine particles.
Advantageously, dispersions comprising this specific crystal modification are not subjected to phase transformations resulting in a crystal growth.
5 g of the compound obtained in Example A2 (modification (B)) and 5 g of the compound of formula (1) obtained in Example A1 are elutriated in 50 g N-methylpyrrolidone at 25° C.
The suspension is stirred for 3 days at 25° C.

thermodynamic stability of the crystal modification: thermodynamically stable
Structure (SMILES): CCN(CC)c1ccc(C(=O)c2ccccc2C(=O)N2CCN(C(=O)c3ccccc3C(=O)c3ccc(N(CC)CC)cc3O)CC2)c(O)c1 [crystal modification (C)]
